Test results published in patent US8748117B2, “Probe for detection and quantification of nitric oxide, and method for detecting and quantifying nitric oxide using the same” (Japan Science and Technology Agency, priority 2004, dated 2014).
“Also recorded” adds a separate entry of the source.

Columns and labels:
[1] = system: sGC; assay: Block of the NOC-7 response of NOA-1 by sGC inhibitor pretreatment in CHO-K1 cells; format: cell-based; settings: cells pretreated with NS 2028 (100 μM, FIG. 3-b)
From the text: (§1) Two cDNAs were introduced into CHO K1 cells having little amount of endogenous sGC thereby coexpressing both sGCα-CGY and sGCβ-CGY in the cells.

[2] = system: phosphatidyl inositol 3-kinase (PI(3)K); assay: PI(3)K inhibitor effect on basal NO (NOA-1 emission ratio) in endothelial cells; format: cell-based, bovine
Description: The stable generation of the basal NO concentration was examined in vascular endothelial cells cultured in a serum-containing medium.
That is, the endothelial cells expressing NOA-1 was added with 100 μM LY 294002), and the CFP/YFP emission ratio was monitored for the NO concentrations in the cells.

[3] = system: CHO-K1 cells expressed with NOA-1; assay: Selectivity of NOA-1 FRET response (CO, natriuretic peptide, cAMP generation); format: cell-based; settings: for CFP/YFP emission ratio of NOA-1: excess concentration, several cultured cell types including CHO-K1 cells
From the text: As to the selectivity of NOA-1, the FRET response of NOA-1 for carbon monoxide (CO) was examined.
CO is a sGC activator but has a lower affinity with sGC than NO. In addition, the CO-bound sGC is known to have much lower cyclase activity than NO-bound sGC because of each different coordination to the heme iron. Physiologically generated CO thus appears not to affect the response of NOA-1.
Effect of natriuretic peptide stimulation or cAMP generation on the FRET response of NOA-1 was examined.

[4] = system: phosphodiesterases; assay: PDE inhibitor effect on NOA-1 emission ratio in endothelial cells; format: cell-based, bovine; settings: 200 μM zaprinast; endothelial cells expressing NOA-1
[5] = system: phosphodiesterases (PDE); assay: Effect of PDE inhibitor on NOA-1 emission ratio in CHO-K1 cells; format: cell-based
Description: as §1
The latter recovery of the decreased emission ratio disappeared when the cells were pretreated with an inhibitor of phosphodiesterases (PDE) that hydrolyses cGMP, zaprinast (FIG. 3-c).
(§2) (6) The basal concentration of NO in each vascular endothelial cell was measured. We first inhibited endogenous eNOS with 1 mM L-NAME to remove the basal NO and cGMP generated by the basal NO. The CFP/YFP emission ratios before and after the inhibition of endogenous eNOS, respectively, represent the basal and zero concentrations of NO in each endothelial cell (FIG. 15). To quantitate the basal concentration of NO, we subsequently added various concentrations of NO to each endothelial cell, in which eNOS activity was inhibited with L-NAME. The peak response of NOA-1 was plotted at each concentration of NO. Based on the obtained dose-response of NOA-1 for various concentrations of NO, we measured 1 nM of the basal NO concentration generated in each endothelial cell.

[6] = system: endothelial cells from bovine pulmonary artery; assay: NOA-1 CFP/YFP emission ratio in vascular endothelial cells; format: cell-based
Description: (§3) (1) NOA-1 was expressed in endothelial cells from bovine pulmonary artery cultured in a serum-supplemented media. […] This is based on difference of basal NO concentration between CHO-K1 cell and vascular endothelial cell. (3) Endothelial cells and CHO-K1 cells were pretreated with an inhibitor for nitric oxide synthase (NOS), 1 mM L-NAME and the CFP/YFP emission ratio of NOA-1 was observed.
(4) The response of NOA-1 for excess NOC-7 between the endothelial and CHO-K1 cells was compared.
We stimulated the endothelial and CHO-K1 cells with 10 μM NOC-7, which generates enough concentration of NO to immediately saturate the NOA-1 response. […] As a result, in endothelial cells, the obtained change in the emission ratio upon the excess NOC-7 stimulation was actually only one-third of that in CHO-K1 cells (FIG. 13B).
as §2

[7] = system: CHO-K1 cells expressing NOA-1; assay: CFP/YFP emission ratio of NOA-1 in CHO-K1 cells upon NOC-7 / NO stimulation; format: cell-based
Description: cDNAs respectively expressing the hybrid proteins were constructed. The hybrid proteins respectively comprise cGMP-visualization probe (hereinafter described as CGY) connected with C-terminus of sGCα or sGCβ through the linker of SEC ID NO.1 (GGEQKLISEEDLLESR). The CYG was prepared according to the method in Patent documents 1 and 2. The heterodimmer of the hybrid proteins was named as “NOA-1” (fluorescent indicator for NO with a signal amplifier) (FIGS. 2A and B). At N-terminus of NOA-1, FLAG tag of SEC ID NO.2 (MDYKDDDDK) may be attached.
as §1
In the same manner as in Example 1, both sGCα-CGY and sGCβ-CGY were coexpressed in CHO-K1 cells.
In the same manner as in Example 1, the CHO-K1 cells coexpressed with both sGCα and sGCβ were stimulated with various amount of NOC-7 to measure the changes of CFP/YFP emission ratio dependent to NO concentrations (FIG. 6).
In the same manner as in Example 1, the CHO-K1 cells expressing NOA-1 were stimulated with various amount of NOC-7 to measure the changes of CFP/YFP emission ratio by NO and 8-Br-cGMP stimulations (FIGS. 7A and 7B).
The NO-dependent FRET response of NOA-1 was confirmed by using NO solutions prepared by bubbling NO gas. […] Importantly, NOA-1 senses not only an increase in the NO concentration but also its removal by oxidation and/or volatilization. This NO-dependent reversible response of NOA-1 is caused by the reversible binding of NO to the heme group in NOA-1 and endogenous phosphodiesterases that immediately hydrolyze the generated cGMP molecules after the removal of NO.

[8] = system: CHO-K1 cells expressed with sGCα-CGY or sGCβ-CGY; assay: CFP/YFP emission ratio in CHO-K1 cells expressing sGCα-CGY or sGCβ-CGY alone; format: cell-based; settings: subsequent addition of 2 mM 8-Br-cGMP after 50 nM NOC-7
[9] = target: T1, nitric oxide synthase (NOS) (Bos taurus, UniProt P29473); assay: NOS inhibitor effect on NOA-1 emission ratio in endothelial cells; format: cell-based, bovine; settings: 1 mM L-NAME
T1 construct: endogenous in cells; host or cells: bovine pulmonary artery endothelial cells
T1 sequence (P29473 2-1205 limits assumed): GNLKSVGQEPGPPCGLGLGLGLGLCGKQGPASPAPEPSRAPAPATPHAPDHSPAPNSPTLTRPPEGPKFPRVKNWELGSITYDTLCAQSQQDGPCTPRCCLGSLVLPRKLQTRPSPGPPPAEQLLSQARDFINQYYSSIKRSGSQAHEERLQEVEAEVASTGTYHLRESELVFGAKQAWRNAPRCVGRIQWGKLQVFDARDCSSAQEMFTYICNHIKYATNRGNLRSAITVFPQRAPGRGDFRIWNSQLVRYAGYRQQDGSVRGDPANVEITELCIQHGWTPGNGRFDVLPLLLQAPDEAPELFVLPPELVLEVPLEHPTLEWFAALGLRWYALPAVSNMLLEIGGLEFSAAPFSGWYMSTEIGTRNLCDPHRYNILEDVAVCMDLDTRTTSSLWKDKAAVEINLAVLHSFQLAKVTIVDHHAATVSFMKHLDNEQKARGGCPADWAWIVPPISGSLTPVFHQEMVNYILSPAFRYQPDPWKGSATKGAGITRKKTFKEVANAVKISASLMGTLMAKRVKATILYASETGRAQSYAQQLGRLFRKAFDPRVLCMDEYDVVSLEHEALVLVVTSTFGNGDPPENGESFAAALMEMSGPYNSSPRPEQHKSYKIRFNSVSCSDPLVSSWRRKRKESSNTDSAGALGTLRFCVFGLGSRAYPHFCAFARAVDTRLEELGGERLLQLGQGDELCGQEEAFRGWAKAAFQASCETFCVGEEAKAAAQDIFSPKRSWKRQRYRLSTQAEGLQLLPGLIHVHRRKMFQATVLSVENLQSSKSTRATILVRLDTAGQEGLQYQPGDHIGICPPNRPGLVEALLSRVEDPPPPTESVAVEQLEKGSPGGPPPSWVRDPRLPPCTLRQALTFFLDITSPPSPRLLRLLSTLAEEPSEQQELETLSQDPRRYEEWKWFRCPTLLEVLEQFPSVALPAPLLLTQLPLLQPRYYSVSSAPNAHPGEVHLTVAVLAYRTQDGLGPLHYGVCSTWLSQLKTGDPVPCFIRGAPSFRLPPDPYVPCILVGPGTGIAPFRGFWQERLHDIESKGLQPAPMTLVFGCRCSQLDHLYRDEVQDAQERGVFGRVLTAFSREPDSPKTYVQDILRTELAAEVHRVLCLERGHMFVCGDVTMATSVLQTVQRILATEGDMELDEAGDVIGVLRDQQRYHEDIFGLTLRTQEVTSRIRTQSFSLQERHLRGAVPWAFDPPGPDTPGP
Description: as §3

[10] = system: nitric oxide synthase (NOS); assay: NOS inhibitor effect on NOA-1 emission ratio in CHO-K1 cells; format: cell-based; settings: 1 mM L-NAME
Description: as §3

O=c1onc2n1-c1cc(Br)ccc1OC2 [NS 2028]
transient change in the emission ratio by 5 nM NOC-7 [1]: completely blocked

O=c1cc(N2CCOCC2)oc2c(-c3ccccc3)cccc12 [LY 294002, 2-(4-morpholinyl)-8-phenyl-1(4H)-benzopyran-4-one]
time to reach plateau of the emission ratio ([2]; 100 μM LY 294002): ≤ 25 min
emission ratio ([2]; 100 μM LY 294002, endothelial cells expressing NOA-1): significantly increased
effect on basal NO ([2]; endothelial cells, serum-containing medium): removed the basal NO concentration; also recorded: inhibitory effect on basal NO generation

CC(C)NCC(O)c1ccc(O)c(O)c1 (stereo not drawn) [isoproterenol]
CFP/YFP emission ratio of NOA-1 [3]: no significant change

CCCOc1ccccc1-c1nc2nn[nH]c2c(=O)[nH]1 [zaprinast]
CFP/YFP emission ratio [4]: gradually decreased and reached the saturation of NOA-1 response
latter recovery of the decreased emission ratio after 5 nM NOC-7 ([5]; cells pretreated with zaprinast (200 μM, FIG. 3-c)): disappeared
emission ratio ([5]; treatment with zaprinast, NOA-1 in CHO-K1): no significant change

CNCCCNN(N=O)C(C)CO (stereo not drawn) [NOC-7, 3-(2-hydroxy-1-methylethyl-2-nitrosohydrazino)-N-methyl-1-propanamine]
change in the emission ratio upon excess NOC-7 in endothelial cells relative to CHO-K1 cells ([6]; 10 μM NOC-7): one-third
emission ratios ([6]; 10 μM NOC-7, endothelial and CHO-K1 cells): immediately decreased
CFP/YFP emission ratio ([7]; 1 nM or 5 nM NOC-7): dose-dependent transient response; also recorded: NO-dependent transient change
CFP/YFP emission ratio ([7]; 10 nM NOC-7): reaches a plateau and then slowly recovered to the initial level; also recorded: quick decrease
CFP/YFP emission ratio ([7]; 50 nM or 100 nM NOC-7): did not show no recovery to the initial level even after 20 minutes
CFP/YFP emission ratio ([7]; 100 nM NOC-7, after reaching the plateau): did not subsequently show significant recovery for at least 10 min
CFP/YFP emission ratio response on repeated stimulation ([7]; second 5 nM NOC-7 stimulation after recovery to the initial value): same transient response
CFP/YFP emission ratio ([7]; stimulated with 5 nM NOC-7, CHO-K1 coexpressing sGCα-CGY and sGCβ-CGY): immediately decreased but gradually recovered up to the initial level

CC[C@H](C)[C@@H]1NC(=O)[C@H](CCCNC(=N)N)NC(=O)[C@H](CC(=O)O)NC(=O)[C@H](CCSC)NC(=O)[C@H](CCCNC(=N)N)NC(=O)CNC(=O)CNC(=O)[C@H](Cc2ccccc2)NC(=O)[C@@H](NC(=O)[C@H](CO)NC(=O)[C@H](CO)NC(=O)[C@H](CCCNC(=N)N)NC(=O)[C@H](CCCNC(=N)N)NC(=O)[C@H](CC(C)C)NC(=O)[C@@H](N)CO)CSSC[C@@H](C(=O)N[C@@H](CC(N)=O)C(=O)N[C@@H](CO)C(=O)N[C@@H](Cc2ccccc2)C(=O)N[C@@H](CCCNC(=N)N)C(=O)N[C@@H](Cc2ccc(O)cc2)C(=O)O)NC(=O)CNC(=O)[C@H](CC(C)C)NC(=O)CNC(=O)[C@H](CO)NC(=O)[C@H](CCC(N)=O)NC(=O)[C@H](C)NC(=O)CNC1=O [atrial natriuretic peptide]
CFP/YFP emission ratio of NOA-1 [3]: no significant change

[C-]#[O+] [CO, carbon monoxide]
response of NOA-1 compared with that for 5 nM NO ([3]; 100 μM CO): transient but much smaller response
CFP/YFP emission ratio ([3]; CO up to 10 μM): no significant change

Nc1nc2c(nc(Br)n2[C@@H]2O[C@@H]3COP(=O)(O)O[C@H]3[C@H]2O)c(=O)[nH]1 [8-Br-cGMP]
plateau response of CFP/YFP emission ratio ([7]; addition of 2 mM 8-Br-cGMP after 100 nM NOC-7): did not further decrease
CFP/YFP emission ratio [8]: quick decrease

insulin: stimulation activates the PI(3)K-Akt pathway
NO concentration in the endothelial cells ([6]; insulin stimulation): further increases the NO concentration

COC(=O)[C@@H](N)CCCNC(=N)N[N+](=O)[O-] [L-NAME]
CFP/YFP emission ratio of NOA-1 [9]: gradually increased
CFP/YFP emission ratio of NOA-1 [10]: no significant change
